Results taken from patent US20240092773A1, “DIHYDRO-CYCLOPENTA-ISOQUINOLINE SULFONAMIDES DERIVATIVES” (UCB Biopharma SRL, priority 2019, published 2024).

Target: IgE-Tb binding to soluble IgE receptor FcεR1α (Y131A mutation) (Homo sapiens, UniProt P01854, N146Q/N252Q)
Assay: In vitro FRET assay: inhibition of binding of IgE-Tb to receptor FcεR1α-Y131A-AF488
Conditions: read-out: FRET IC50 range

Sequence of IgE-Tb binding to soluble IgE receptor FcεR1α (Y131A mutation) (P01854 whole entry N146Q/N252Q, looked up): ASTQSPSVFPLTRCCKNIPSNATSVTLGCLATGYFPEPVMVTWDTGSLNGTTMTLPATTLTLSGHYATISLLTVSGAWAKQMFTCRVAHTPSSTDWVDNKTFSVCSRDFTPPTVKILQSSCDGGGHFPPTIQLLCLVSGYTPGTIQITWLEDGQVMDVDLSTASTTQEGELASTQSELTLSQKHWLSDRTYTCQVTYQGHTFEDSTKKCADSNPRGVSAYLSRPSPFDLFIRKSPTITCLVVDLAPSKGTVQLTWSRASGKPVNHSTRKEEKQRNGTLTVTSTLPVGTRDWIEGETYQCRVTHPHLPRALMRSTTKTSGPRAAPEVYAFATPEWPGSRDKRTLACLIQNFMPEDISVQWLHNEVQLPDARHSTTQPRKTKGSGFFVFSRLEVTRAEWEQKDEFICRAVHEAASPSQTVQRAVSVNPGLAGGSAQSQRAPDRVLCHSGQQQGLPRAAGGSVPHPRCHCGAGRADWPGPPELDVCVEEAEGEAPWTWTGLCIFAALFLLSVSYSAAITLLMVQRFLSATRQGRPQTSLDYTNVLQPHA

SMILES	IC50 [nM]
Cc1cncc(Nc2nncn2[C@@H]2CCc3c2cc(S(=O)(=O)NCC(C)C)c2cc(C4CC4)ncc32)c1 (single isomer, unassigned) [Example 89, (7R*)-3-cyclopropyl-N-(2-methylpropyl)-7-[3-[(5-methylpyridin-3-yl)amino]-1,2,4-triazol-4-yl]-8,9-dihydro-7H-cyclopenta[h]isoquinoline-5-sulfonamide]	1 to 10
CC(C)CNS(=O)(=O)c1cc2c(c3cnc(C4CC4)cc13)CCC2Nc1nncn1-c1cccnc1 (stereo not shown) [Example 90, 3-cyclopropyl-N-(2-methylpropyl)-7-[(4-pyridin-3-yl-1,2,4-triazol-3-yl)amino]-8,9-dihydro-7H-cyclopenta[h]isoquinoline-5-sulfonamide]	100 to 2000
CC(C)CNS(=O)(=O)c1cc2c(c3cnc(C4CC4)cc13)C(O)CC2 (stereo not shown) [Example 62, 3-cyclopropyl-9-hydroxy-N-(2-methylpropyl)-8,9-dihydro-7H-cyclopenta[h]isoquinoline-5-sulfonamide]	100 to 2000
CC(C)(F)CNS(=O)(=O)c1cc2c(c3cnc(C4CC4)cc13)CC[C@H]2Nc1nccn1CC1CC1 (single isomer, unassigned) [Example 13, (7R*)-3-cyclopropyl-7-[[1-(cyclopropylmethyl)imidazol-2-yl]amino]-N-(2-fluoro-2-methylpropyl)-8,9-dihydro-7H-cyclopenta[h]isoquinoline-5-sulfonamide]	100 to 2000
CC(C)CNS(=O)(=O)c1cc2c(c3cnc(C4CC4)cc13)C(C)(O)CC2 (stereo not shown) [Example 64, 3-cyclopropyl-9-hydroxy-9-methyl-N-(2-methylpropyl)-7,8-dihydrocyclopenta[h]isoquinoline-5-sulfonamide]	100 to 2000
CC(C)CNS(=O)(=O)c1cc2c(c3cnc(C4CC4)cc13)CCC2O (stereo not shown) [Example 47, 3-cyclopropyl-7-hydroxy-N-(2-methylpropyl)-8,9-dihydro-7H-cyclopenta[h]isoquinoline-5-sulfonamide]	100 to 2000
CC(C)(F)CNS(=O)(=O)c1cc2c(c3cnc(C4CC4)cc13)CCC2n1nccc1NC(=O)C1CC1 (stereo not shown) [Example 38, N-[2-[3-cyclopropyl-5-[(2-fluoro-2-methylpropyl)sulfamoyl]-8,9-dihydro-7H-cyclopenta[h]isoquinolin-7-yl]pyrazol-3-yl]cyclopropanecarboxamide]	100 to 2000
CC(C)CNS(=O)(=O)c1cc2c(c3cnc(C4CC4)cc13)C(Nc1nncn1-c1cccc3c1nnn3C)CC2 (stereo not shown) [Example 2, 3-cyclopropyl-N-isobutyl-9-[[4-(1-methylbenzotriazol-4-yl)-1,2,4-triazol-3-yl]amino]-8,9-dihydro-7H-cyclopenta[h]isoquinoline-5-sulfonamide]	50 to 100
CC(C)CNS(=O)(=O)c1cc2c(c3cnc(C4CC4)cc13)C(=O)CC2 [Example 63, 3-cyclopropyl-N-(2-methylpropyl)-9-oxo-7,8-dihydrocyclopenta[h]isoquinoline-5-sulfonamide]	100 to 2000
CC(C)CNS(=O)(=O)c1cc2c(c3cnc(C4CC4)cc13)C(NC(=O)Nc1ccc(Br)cc1)CC2 (stereo not shown) [Example 45, 1-(4-bromophenyl)-3-[3-cyclopropyl-5-(2-methylpropylsulfamoyl)-8,9-dihydro-7H-cyclopenta[h]isoquinolin-9-yl]urea]	100 to 2000
CC(C)(F)CNS(=O)(=O)c1cc2c(c3cnc(C4CC4)cc13)OCC2O (stereo not shown) [Example 36, 7-cyclopropyl-N-(2-fluoro-2-methylpropyl)-3-hydroxy-2,3-dihydrofuro[3,2-h]isoquinoline-5-sulfonamide]	10 to 50
CCNc1nncn1C1CCc2c1cc(S(=O)(=O)NCC(C)C)c1cc(C3CC3)ncc21 (single isomer, unassigned) [Example 52, (7R*)-3-cyclopropyl-7-[3-(ethylamino)-1,2,4-triazol-4-yl]-N-(2-methylpropyl)-8,9-dihydro-7H-cyclopenta[h]isoquinoline-5-sulfonamide]	10 to 50
CC(C)CNS(=O)(=O)c1cc2c(c3cnc(C4CC4)cc13)C(Nc1nncn1-c1cccnc1)CC2 (stereo not shown) [Example 75, 3-cyclopropyl-N-(2-methylpropyl)-9-[(4-pyridin-3-yl-1,2,4-triazol-3-yl]amino]-8,9-dihydro-7H-cyclopenta[h]isoquinoline-5-sulfonamide]	10 to 50
Cc1ccc(N/C(=N\C#N)NC2CCc3cc(S(=O)(=O)NCC(C)C)c4cc(C5CC5)ncc4c32)cc1 (stereo not shown) [Example 69, 2-cyano-1-[3-cyclopropyl-5-(2-methylpropylsulfamoyl)-8,9-dihydro-7H-cyclopenta[h]isoquinolin-9-yl]-3-(4-methylphenyl)guanidine]	100 to 2000
CC(C)CNS(=O)(=O)c1cc2c(c3cnc(C4CC4)cc13)CCC2(C)O (stereo not shown) [Example 49, 3-cyclopropyl-7-hydroxy-7-methyl-N-(2-methylpropyl)-8,9-dihydrocyclopenta[h]isoquinoline-5-sulfonamide]	100 to 2000
CC(C)(F)CNS(=O)(=O)c1cc2c(c3cnc(C4CC4)cc13)CCC2N1CCC[C@@H](N)C1 (stereo partly drawn) [Example 57, 7-[(3R)-3-aminopiperidin-1-yl]-3-cyclopropyl-N-(2-fluoro-2-methylpropyl)-8,9-dihydro-7H-cyclopenta[h]isoquinoline-5-sulfonamide]	100 to 2000

SMILES	IC50 [nM]
CC(C)(F)CNS(=O)(=O)c1cc2c(c3cnc(C4CC4)cc13)C(Nc1cncnc1)CC2 (stereo not shown) [Example 28, 3-cyclopropyl-N-(2-fluoro-2-methylpropyl)-9-(pyrimidin-5-ylamino)-8,9-dihydro-7H-cyclopenta[h]isoquinoline-5-sulfonamide]	50 to 100
CC(C)CNS(=O)(=O)c1cc2c(c3cnc(C4CC4)cc13)[C@H](NC(=O)c1cccnc1)CC2 (single isomer, unassigned) [Example 21, N-[(9R*)-3-cyclopropyl-5-(2-methylpropylsulfamoyl)-8,9-dihydro-7H-cyclopenta[h]isoquinolin-9-yl]pyridine-3-carboxamide]	10 to 50
COC(=O)c1ccc(NC2CCc3cc(S(=O)(=O)NCC(C)C)c4cc(C5CC5)ncc4c32)cn1 (stereo not shown) [Example 18, methyl 5-[[3-cyclopropyl-5-(2-methylpropylsulfamoyl)-8,9-dihydro-7H-cyclopenta[h]isoquinolin-9-yl]amino]pyridine-2-carboxylate]	10 to 50
Cc1cc(NC(=S)NC2CCc3c2cc(S(=O)(=O)NCC(C)(C)F)c2cc(C4CC4)nnc32)n(C)n1 (stereo not shown) [Example 23, 1-[3-cyclopropyl-5-[(2-fluoro-2-methylpropyl)sulfamoyl]-8,9-dihydro-7H-cyclopenta[h]cinnolin-7-yl]-3-(2,5-dimethylpyrazol-3-yl)thiourea]	10 to 50
CC(C)(F)CNS(=O)(=O)c1cc2c(c3cnc(C4CC4)cc13)C(Nc1ccc3c(c1)CC(=O)N3)CC2 (stereo not shown) [Example 29, 3-cyclopropyl-N-(2-fluoro-2-methylpropyl)-9-[(2-oxo-1,3-dihydroindol-5-yl)amino]-8,9-dihydro-7H-cyclopenta[h]isoquinoline-5-sulfonamide]	100 to 2000
CC(C)CNS(=O)(=O)c1cc2c(c3cnc(C4CC4)cc13)[C@@H](Nc1nc3ccccc3[nH]1)CC2 (single isomer, unassigned) [Example 80, (9R*)-9-(1H-benzimidazol-2-ylamino)-3-cyclopropyl-N-(2-methylpropyl)-8,9-dihydro-7H-cyclopenta[h]isoquinoline-5-sulfonamide]	10 to 50
CC(C)(F)CNS(=O)(=O)c1cc2c(c3cnc(C4CC4)cc13)CCC2C(=O)O (stereo not shown) [Example 7, 3-cyclopropyl-5-[(2-fluoro-2-methylpropyl)sulfamoyl]-8,9-dihydro-7H-cyclopenta[h]isoquinoline-7-carboxylic Acid]	100 to 2000
CC(C)CNS(=O)(=O)c1cc2c(c3cnc(C4CC4)cc13)CCC2NS(C)(=O)=O (stereo not shown) [Example 83, 3-cyclopropyl-7-(methanesulfonamido)-N-(2-methylpropyl)-8,9-dihydro-7H-cyclopenta[h]isoquinoline-5-sulfonamide]	100 to 2000
CC(C)CNS(=O)(=O)c1cc2c(c3cnc(C4CC4)cc13)CCC2N (stereo not shown) [Example 50, 7-amino-3-cyclopropyl-N-(2-methylpropyl)-8,9-dihydro-7H-cyclopenta[h]isoquinoline-5-sulfonamide]	100 to 2000
CCn1cnnc1NC1CCc2cc(S(=O)(=O)NCC(C)C)c3cc(C4CC4)ncc3c21 (single isomer, unassigned) [Example 73, (9R*)-3-cyclopropyl-9-[(4-ethyl-1,2,4-triazol-3-yl)amino]-N-(2-methylpropyl)-8,9-dihydro-7H-cyclopenta[h]isoquinoline-5-sulfonamide]	10 to 50
CCNc1c(N[C@@H]2CCc3cc(S(=O)(=O)NCC(C)C)c4cc(C5CC5)ncc4c32)c(=O)c1=O (single isomer, unassigned) [Example 79, (9R*)-3-cyclopropyl-9-[[2-(ethylamino)-3,4-dioxocyclobuten-1-yl]amino]-N-(2-methylpropyl)-8,9-dihydro-7H-cyclopenta[h]isoquinoline-5-sulfonamide]	10 to 50
CCNC(=O)N[C@@H]1CCc2c1cc(S(=O)(=O)NCC(C)C)c1cc(C3CC3)ncc21 (stereo in doubt) [Example 85, 1-ethyl-3-[(7R*)-3-cyclopropyl-5-(2-methylpropylsulfamoyl-8,9-dihydro-7H-cyclopenta[h]isoquinolin-7-yl]urea]	10 to 50
CC(C)(F)CNS(=O)(=O)c1cc2c(c3cnc(C4CC4)cc13)CC[C@H]2NC(=O)NCC1CC1 (single isomer, unassigned) [Example 8, 1-(cyclopropylmethyl)-3-[(7R*)-3-cyclopropyl-5-[(2-fluoro-2-methylpropyl)sulfamoyl]-8,9-dihydro-7H-cyclopenta[h]isoquinolin-7-yl]urea]	100 to 2000
CC(C)(F)CNS(=O)(=O)c1cc2c(c3cnc(C4CC4)cc13)CCC2(O)c1cccnc1 (stereo not shown) [Example 10, 3-cyclopropyl-N-(2-fluoro-2-methylpropyl)-7-hydroxy-7-pyridin-3-yl-8,9-dihydrocyclopenta[h]isoquinoline-5-sulfonamide]	100 to 2000
CC(C)(F)CNS(=O)(=O)c1cc2c(c3cnc(C4CC4)cc13)C(Nc1cncc3ccccc13)CC2 (stereo not shown) [Example 68, 3-cyclopropyl-N-(2-fluoro-2-methylpropyl)-9-(isoquinolin-4-ylamino)-8,9-dihydro-7H-cyclopenta[h]isoquinoline-5-sulfonamide]	100 to 2000
